Measurements published in paper PMC8110907, “Arabidopsis Carboxylesterase 20 Binds Strigolactone and Increases Branches and Tillers When Ectopically Expressed in Arabidopsis and Maize” (Frontiers in Plant Science, 2021).
Blank lines part the entries; values can stand above or below the molecule they belong to.

Columns and labels:
[1] = target: T1, AtCXE20 (carboxylesterase 20) (Arabidopsis thaliana, UniProt Q9LVB8); assay: esterase inhibition at […] (p-nitrophenyl acetate substrate); also decreased intrinsic fluorescence at […]; format: biochemical
T1 construct: gene CXE20; recombinant AtCXE20 with 20-amino acid N-terminal peptide fusion including a 6-histidine tag, expressed in E. coli
T1 sequence (Q9LVB8 1-327): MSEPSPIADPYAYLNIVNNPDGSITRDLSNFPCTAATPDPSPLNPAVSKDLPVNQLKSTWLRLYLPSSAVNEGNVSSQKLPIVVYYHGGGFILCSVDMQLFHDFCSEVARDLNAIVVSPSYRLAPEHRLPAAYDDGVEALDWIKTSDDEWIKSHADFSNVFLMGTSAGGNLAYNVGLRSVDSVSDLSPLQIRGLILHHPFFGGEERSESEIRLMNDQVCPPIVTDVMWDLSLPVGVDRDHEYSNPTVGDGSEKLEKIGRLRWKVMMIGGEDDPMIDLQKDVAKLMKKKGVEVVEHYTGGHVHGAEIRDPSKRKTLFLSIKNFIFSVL

[2] = target: T1, AtCXE20 (carboxylesterase 20); assay: esterase assay with p-nitrophenyl acetate, Michaelis-Menten kinetics; format: biochemical
purified protein = substrate: CC(=O)Oc1ccc([N+](=O)[O-])cc1; assay: purified protein; format: biochemical, Arabidopsis thaliana; settings: catalytic triad S166, H302, D272 (homology model)

Molecule: CC1=CC(O/C=C2/C(=O)OC3c4ccccc4CC23)OC1=O (racemic) [GR24, rac-GR24]
esterase inhibition at 20 μM (p-nitrophenyl acetate substrate); also decreased i [1]: substantial inhibition was observed with the synthetic SL racemic mixture GR24

Ki [2]: 5 µM
Molecule: CC1=C[C@H](O/C=C2/C(=O)O[C@@H]3C4=C(CCCC4(C)C)C[C@H]23)OC1=O [5-DS, 5-deoxystrigol]

B1: AtCXE20 (carboxylesterase 20) (Arabidopsis thaliana) (protein)
chain: T1 sequence (Q9LVB8 1-327)
notes: recombinant AtCXE20 with 20-amino acid N-terminal peptide fusion including a 6-histidine tag, expressed in E. coli
Km (purified protein): 251 ± 26 µM
